We go through 4 compounds from patent US5698578A, “Protein kinase C inhibitors” (Eli Lilly and Company, priority 1996, dated 1997).

“Also recorded” adds a separate entry of the source.

The target of one data set is PKC-α (Homo sapiens, UniProt P17252). The experiment in a line: PKC Enzyme Assay, alpha isozyme. Type of data set: biochemical. As to conditions: Table 1, 30 μM ATP, 30° C., 10 minutes. Here is the method:
PKC enzymes=alpha, beta I, beta II, gamma, delta, epsilon, eta and zeta.
Assay components in a total volume of 250 μL are as follows:
For all the enzymes either histone type HL (Worthington) or myelin basic protein is used as substrate. The assay is started by addition of protein kinase C enzyme incubated at 30° C. for 10 minutes and stopped by adding 0.5 mL of cold trichloroacetic acid (Amresco) followed by 100 μL of 1 mg/mL bovine serum albumin (Sigma, St. Louis, Mo.). The precipitate is collected by vacuum filtration on glass fiber filters employing a TOMTEC™ filtration system and quantified by counting in a beta scintillation counter.

Data set [1] deals with Protein Tyrosine Kinase (src) (Homo sapiens, UniProt P12931). The experiment in a line: Protein Tyrosine Kinase Assay (src). Conditions: Table 1; Raytide substrate. The data set is classed as biochemical. How it is done:
Protein Tyrosine Kinase Assay (src)
The Assay components are the following:
4 μL DMSO or DMSO/inhibitor

The conditions of data set [2]: from CN1C(=O)C(c2c[nH]c3ccccc23)=C(c2cn(CCOC(CCI)CO[Si](c3ccccc3)(c3ccccc3)C(C)(C)C)c3ccccc23)C1=O; amine bond; Cs2CO3; DMF; 8.98 mM; 68.0 h.
The test system of data set [3] is protein kinase C isozymes. Conditions: literature; cited from earlier work.

Sequence of Protein Tyrosine Kinase (src) (P12931 whole entry, species assumed): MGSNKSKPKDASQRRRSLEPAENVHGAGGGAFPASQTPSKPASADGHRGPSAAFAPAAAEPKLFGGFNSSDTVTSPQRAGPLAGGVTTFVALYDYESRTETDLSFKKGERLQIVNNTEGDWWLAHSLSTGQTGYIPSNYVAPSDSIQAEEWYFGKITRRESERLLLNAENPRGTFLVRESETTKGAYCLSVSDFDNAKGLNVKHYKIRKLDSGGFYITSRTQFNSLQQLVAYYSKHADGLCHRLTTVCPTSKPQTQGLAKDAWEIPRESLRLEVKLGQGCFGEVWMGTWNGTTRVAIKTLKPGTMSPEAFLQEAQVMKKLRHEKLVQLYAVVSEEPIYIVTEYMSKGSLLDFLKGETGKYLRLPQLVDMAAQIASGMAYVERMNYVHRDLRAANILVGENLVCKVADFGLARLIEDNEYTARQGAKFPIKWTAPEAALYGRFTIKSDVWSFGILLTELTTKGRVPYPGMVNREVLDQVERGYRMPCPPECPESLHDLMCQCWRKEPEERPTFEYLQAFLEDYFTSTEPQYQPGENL

By IC50 is commonly meant the concentration that inhibits the measured activity by half. Low values mean higher potency, high ones lower potency. Take `O=C1NC(=O)C2=C1c1cn(c3ccccc13)CCO[C@H](CNS(=O)(=O)c1ccccc1)CCn1cc2c2ccccc21` [Example 21s]: the IC50 against PKC-α is > 5 µM.

In the case of `O=C1NC(=O)C2=C1c1cn(c3ccccc13)CCO[C@H](CNCc1ccccc1)CCn1cc2c2ccccc21` [Example 18s], the IC50 in data set [1] was > 100 µM.

For `CN1C(=O)C2=C(C1=O)c1cn(c3ccccc13)CCC(CO[Si](c1ccccc1)(c1ccccc1)C(C)(C)C)OCCn1cc2c2ccccc21` (stereo not shown), the ring closure, yield of all isomers in data set [2] was 82%.

Turning to `CN(C)CCCn1cc(C2=C(c3c[nH]c4ccccc34)C(=O)NC2=O)c2ccccc21` [3-[1-(3-dimethylaminopropyl)-indol-3-yl]-4-(1H-indol-3-yl)-1H-pyrrole-2,5-dione], in data set [3], the PKC isozyme selectivity entry is “slight selectivity for the calcium dependent isozymes; also recorded: no difference, or possibly slight selectivity, for alpha over beta-1 and beta-2 isozymes”.
